From patent US8252273B2, “Ultraviolet absorber” (Lead Chemical Co., Ltd., priority 2007, dated 2012) come the findings set out here.

Some results are limits rather than exact numbers.

Series [1] can be described thus: Test Example 2: solubility test in organic solvents. Type of series: physicochemical. The following applies: for Amount of solvent required to dissolve 100 mg of sample / Concentration on dissolving 100 mg of sample: room temperature (23 to 25° C.). The procedure:
Sample a: the O-tolyl-4-methoxycinnamate compound synthesized in Example 1
Sample b: the Compound of Reference Example 2
The amounts of various organic solvents capable of dissolving 100 mg of each sample at room temperature (23 to 25° C.) were measured. For dissolving the sample, a 50 mL polypropylene conical tube (manufactured by CORNING Inc.) was used, and dissolution was carried out by stirring with a shaker (trade name: Vortex G-56; manufactured by Scientific Ind. Inc.) for 1 minute.

Series [2] can be described thus: Test Example 3: ultraviolet irradiation test (absorption spectra for different irradiation times). In kind it is physicochemical. The following applies: conclusion for the compounds. The source says:
Ointments (samples B, C, D and E) prepared in Test Example 1 were interposed between two pieces of synthetic quartz plates to prepare measurement samples.
From a light radiated from a 500 W ultra-high pressure mercury vapor lamp (trade name: USH-500D; manufactured by Ushio Inc.), the visible light was removed through a water filter of 5 cm and an ultraviolet transmitting and visible light-absorbing filter (trade name: UV-D33S; manufactured by AGC Techno Glass Co., Ltd.). Then, each measurement sample was irradiated with ultraviolet rays mostly in the UVA and the UVB ranges. Ultraviolet rays irradiation time was set at 0, 5, 10, 15, 20, 25 and 30 minutes. The results of the test are shown in the ultraviolet absorption spectra of FIG. 4 to FIG. 7.

With `COc1ccc(/C=C/C(=O)Oc2ccccc2C)cc1` [Example 1, O-tolyl-4-methoxycinnamate], the melting point (in general, the temperature, or range, at which the solid turns liquid) is 93 to 94 °C. In addition, in series [1] (Acetone), the Amount of solvent required to dissolve 100 mg of sample was under 1 mL and the “Concentration on dissolving 100 mg of sample” value (shortened to “Concentration”) is reported as “(>10)”. Also, in series [1] (Ethanol), the “Amount of solvent required to dissolve 100 mg of sample” value (“Amount of solvent required” for short) was found to be 10 mL and the “Concentration” value is “(1)”. In series [1] (Ether), the “Amount of solvent required” value is listed as 3 mL and the “Concentration” value was “(3.3)”. In series [1] (Ethyl acetate), the Amount of solvent required to dissolve 100 mg of sample was under 1 mL and the “Concentration” value was “(>10)”. Further, in series [1] (Isopropyl alcohol), the “Amount of solvent required” value is recorded as 15 mL and the “Concentration” value is reported as “(0.67)”. Moreover, in series [1] (Methanol), the “Amount of solvent required” value was found to be 7.5 mL and the “Concentration” value is given as “(1.3)”. In series [1] (N-methylpyrrolidone), the Amount of solvent required to dissolve 100 mg of sample was under 1 mL and the “Concentration” value is listed as “(>10)”. Also, the “Solubility in organic solvents compared with Reference Example 2” value in series [1] (almost all the organic solvents tested) was “better solubility than that of the compound of Reference Example 2”. Also, the “Ultraviolet absorptive capacity (absorption strength) under ultraviolet irradiation in the UVA and the UVB ranges” value (“Ultraviolet absorptive capacity” for short) in series [2] is reported as “increases further”.
Regarding `CCCCC(CC)COC(=O)C=Cc1ccc(OC)cc1` (stereo not drawn) [Reference Example 1, 4-methoxycinnamic acid-2-ethylhexyl, reference compound], the “Ultraviolet absorptive capacity” value in series [2] is “decreases or remains the same”.
On to `COc1ccc(C(=O)CC(=O)c2ccc(C(C)(C)C)cc2)cc1` [Reference Example 2, 4-tert-butyl-4′-methoxy-dibenzoylmethane, reference compound], for which the “Ultraviolet absorptive capacity” value in series [2] is “decreases or remains the same”.
On to `CCOc1ccc(/C=C/C(=O)Oc2ccccc2C)cc1` [Example 2, O-tolyl-4-ethoxycinnamate], for which the melting point was 108 to 109 °C. For the same molecule, in series [2], the “Ultraviolet absorptive capacity” value is recorded as “increases further”.
